Laboratory results as given in the supplement of paper PMC11451515.

Tested on: SEM cells
Test: cell viability relative to DMSO control; higher = less cytotoxic
Conditions: 48 h
Outline: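 Viability values are per-plate percentages of DMSO wells, with background from cell-free wells. Library compounds in DMSO were pin-dosed, in an 11-point threefold series from 47 μM to 0.79 nM, onto NOMO1 or SEM (500 cells/well) or P12-Ichikawa (1000 cells/well) leukemia cells in 1536-well plates (5 μl). Those cells had been adapted for at least four passages in each medium, and CellTiter-Glo One luminescence was read after 48 h at 37°C.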

[1] = HPLM + 10% dialyzed FBS, 0.000781 µM
[2] = HPLM + 10% dialyzed FBS, 0.00234 µM
[3] = HPLM + 10% dialyzed FBS, 0.00702 µM
[4] = HPLM + 10% dialyzed FBS, 0.0211 µM
[5] = HPLM + 10% dialyzed FBS, 0.0632 µM
[6] = HPLM + 10% dialyzed FBS, 0.19 µM
[7] = HPLM + 10% dialyzed FBS, 0.569 µM
[8] = HPLM + 10% dialyzed FBS, 1.71 µM
[9] = HPLM + 10% dialyzed FBS, 5.12 µM
[10] = HPLM + 10% dialyzed FBS, 15.4 µM
[11] = HPLM + 10% dialyzed FBS, 46.1 µM
[12] = RPMI 5 mM glucose + 10% dialyzed FBS, 0.000781 µM
[13] = RPMI 5 mM glucose + 10% dialyzed FBS, 0.00234 µM
[14] = RPMI 5 mM glucose + 10% dialyzed FBS, 0.00702 µM
[15] = RPMI 5 mM glucose + 10% dialyzed FBS, 0.0211 µM
[16] = RPMI 5 mM glucose + 10% dialyzed FBS, 0.0632 µM
[17] = RPMI 5 mM glucose + 10% dialyzed FBS, 0.19 µM
[18] = RPMI 5 mM glucose + 10% dialyzed FBS, 0.569 µM
[19] = RPMI 5 mM glucose + 10% dialyzed FBS, 1.71 µM
[20] = RPMI 5 mM glucose + 10% dialyzed FBS, 5.12 µM
[21] = RPMI 5 mM glucose + 10% dialyzed FBS, 15.4 µM
[22] = RPMI 5 mM glucose + 10% dialyzed FBS, 46.1 µM
[23] = RPMI 5 mM glucose + 10% FBS, 0.000781 µM
[24] = RPMI 5 mM glucose + 10% FBS, 0.00234 µM
[25] = RPMI 5 mM glucose + 10% FBS, 0.00702 µM
[26] = RPMI 5 mM glucose + 10% FBS, 0.0211 µM
[27] = RPMI 5 mM glucose + 10% FBS, 0.0632 µM
[28] = RPMI 5 mM glucose + 10% FBS, 0.19 µM
[29] = RPMI 5 mM glucose + 10% FBS, 0.569 µM
[30] = RPMI 5 mM glucose + 10% FBS, 1.71 µM
[31] = RPMI 5 mM glucose + 10% FBS, 5.12 µM
[32] = RPMI 5 mM glucose + 10% FBS, 15.4 µM
[33] = RPMI 5 mM glucose + 10% FBS, 46.1 µM

Structure (SMILES) | cell viability [1] [%] | cell viability [2] [%] | cell viability [3] [%] | cell viability [4] [%] | cell viability [5] [%] | cell viability [6] [%] | cell viability [7] [%] | cell viability [8] [%] | cell viability [9] [%] | cell viability [10] [%] | cell viability [11] [%] | cell viability [12] [%] | cell viability [13] [%] | cell viability [14] [%] | cell viability [15] [%] | cell viability [16] [%] | cell viability [17] [%] | cell viability [18] [%] | cell viability [19] [%] | cell viability [20] [%] | cell viability [21] [%] | cell viability [22] [%] | cell viability [23] [%] | cell viability [24] [%] | cell viability [25] [%] | cell viability [26] [%] | cell viability [27] [%] | cell viability [28] [%] | cell viability [29] [%] | cell viability [30] [%] | cell viability [31] [%] | cell viability [32] [%] | cell viability [33] [%]
O=C(NC1CCNCC1)c1n[nH]cc1NC(=O)c1c(Cl)cccc1Cl | 93 | 95.9 | 103 | 127 | 118 | 119 | 98.8 | 16.4 | 7.23 | 5.22 | 3.82 | 108 | 97.6 | 126 | 115 | 118 | 121 | 129 | 24.6 | 7.87 | 5.31 | 3.76 | – | – | – | – | – | – | – | – | – | – | –
COc1cc2c(Nc3ccc(NC(=O)c4ccccc4)cc3)ncnc2cc1OCCCN1CCOCC1 | 105 | 119 | 124 | 140 | 130 | 133 | 123 | 105 | 56.8 | 44.5 | 40.6 | – | – | – | – | – | – | – | – | – | – | – | 122 | 127 | 112 | 140 | 136 | 124 | 144 | 122 | 55 | 25.9 | 22.4
NC(=O)N1c2ccccc2CC(=O)c2ccccc21 | – | – | – | – | – | – | – | – | – | – | – | 110 | 116 | 114 | 117 | 129 | 118 | 105 | 124 | 122 | 123 | 147 | 124 | 135 | 121 | 132 | 126 | 123 | 139 | 137 | 137 | 161 | 142
C=C(C)[C@@H]1CC[C@]2(C)CC[C@]3(C)[C@H](CC[C@@H]4[C@@]5(C)CC[C@H](O)C(C)(C)[C@@H]5CC[C@]43C)[C@@H]12 | 86.4 | 103 | 101 | 91.6 | 89 | 100 | 11 | 109 | 111 | 123 | 121 | 81.3 | 98.5 | 104 | 99.3 | 102 | 108 | 8.47 | 111 | 101 | 90.5 | 104 | 97.5 | 107 | 112 | 103 | 104 | 113 | 10 | 110 | 135 | 126 | 124
O=C(O)c1ccc2cc(-c3ccc(O)c(C45CC6CC(CC(C6)C4)C5)c3)ccc2c1 | – | – | – | – | – | – | – | – | – | – | – | – | – | – | – | – | – | – | – | – | – | – | 120 | 129 | 114 | 118 | 118 | 93.1 | 41.7 | 19.8 | 10.5 | 9.46 | 8.21
CC(C)(C)OC(=O)CN(Cc1ccc(Cl)cc1)Cc1ccc([N+](=O)[O-])s1 | 110 | 111 | 101 | 110 | 110 | 115 | 109 | 114 | 92.8 | 91.5 | 43.7 | 90.7 | 97.2 | 94.3 | 99.8 | 92.8 | 99.1 | 97.3 | 94 | 91.2 | 95.1 | 21.1 | 98.2 | 103 | 87.5 | 94.4 | 103 | 108 | 90.2 | 110 | 99.9 | 95.2 | 26.1
Cc1nc(Nc2ncc(C(=O)Nc3c(C)cccc3Cl)s2)cc(N2CCN(CCO)CC2)n1 | 88.1 | 106 | 93.3 | 98.3 | 91.7 | 92 | 80.2 | 81.9 | 54.9 | 34.9 | 29.9 | 100 | 102 | 106 | 99.6 | 104 | 99.9 | 88.3 | 79.2 | 50.3 | 26.4 | 25.2 | 66.6 | 68.9 | 64.9 | 78.4 | 68.2 | 66.1 | 74.7 | 69.9 | 60.1 | 17.5 | 14.8
CC(C)OC(=O)CCC/C=C\C[C@@H]1[C@@H](/C=C/[C@@H](O)COc2cccc(C(F)(F)F)c2)[C@H](O)C[C@@H]1O | 65.4 | 124 | 115 | 118 | 118 | 118 | 121 | 122 | 106 | 102 | 31.7 | – | – | – | – | – | – | – | – | – | – | – | – | – | – | – | – | – | – | – | – | – | –
